Data reported in patent publication EP4578856A1, “HETEROCYCLIC COMPOUND” (Ubience Inc., priority 2022, dated 2024).

What was measured:
[1] = target: FAK protein (Homo sapiens, UniProt Q05397); experiment: Degradation inducing activity of FAK protein in PA-1 cells, Western blotting (Simple Western JESS); type: cell-based; set-up: endogenous in cells; host or cells: PA-1 (ATCC CRL-1572); settings: at 10 µM, 24 hours
Description: In vitro degradation inducing activity of FAK protein of compounds of Examples was evaluated by Western Blotting (WB).
By a test compound, 10 mM DMSO solution was prepared, which was used as a 10 µM test compound solution. Further, the solution was diluted 10-fold with DMSO to prepare a 1 mM solution, which was used as a 1 µM test compound solution.
PA-1 cells (ATCC: CRL-1572, Lot: 70055709) were cultured in Eagle's Minimum Essential Medium supplemented with 10% FBS and 1% Penicillin/Streptomycin. The PA-1 cells seeded in a 24 well plate at 200,000 cells/well/1 mL were cultured for 24 hours, and then 1 µL of DMSO or a test compound solution was added thereto and treatment was performed for 24 hours. Cells were harvested and lysed for 20 minutes on ice using RIPA lysis buffer (Sigma, Cat#R0278) supplemented with protease inhibitor cocktail (Sigma, Cat#P8340; Roche, Cat#P11873580001), and phosphatase inhibitor cocktail (Sigma, Cat#P5726, P0044). The lysate was sonicated (15 seconds, amplitude 30%, 1 cycle) and then centrifuged at 12500 rpm for 15 minutes at 4°C. The protein concentration was determined by BCA assay kit (Thermo Fisher Scientific, Cat#23225).
The western blotting was performed using Simple Western JESS (protein simple). A cell lysis sample (protein amount; about 2 µg) was loaded on a plate of Simple Western JESS, and the expression level of […] was detected using a 12-230 kDa Wes Separation Module (Protein simple, Cat#SM-WO04), an Anti-Rabbit Detection Module for Wes (Protein simple, Cat#DM-001), and a Total Protein Detection Module for Wes (Protein simple, Cat#DM-TP01). As the primary antibody, a material obtained by diluting FAK Rabbit mAb (Cell Signaling Technology, Cat#3285) at 1:100 was used, and as the secondary antibody, a material obtained by diluting HRP-labeled anti-rabbit IgG antibody (Cell Signaling Technology, Cat#7074S) at 1:250 was used. The expression level of the target protein was standardized using the total protein amount loaded as a reference. The standardized expression level data of the control (DMSO) was taken as 100%, and the degradation rate (%) was calculated from the average standardized expression level data of the test compounds (compounds of Examples 109 to 128). All analysis steps, such as data detection and analysis, are fully automated.

[2] = target: T1, ROCK2 protein (Homo sapiens, UniProt O75116); experiment: ROCK2 kinase inhibitory activity, mobility shift assay (MSA, Carna Biosciences); type: biochemical; set-up: GST (N); purchased Carna Biosciences, Inc; host or cells: baculovirus expression system; settings: read-out: ROCK2 inhibition rate; for inhibition at 0.03 µM: evaluation concentration 0.03 µM
Description: The ROCK2 kinase inhibitory activity was measured using a mobility shift assay (MSA) provided by Carna Biosciences, Inc.
The test compound was dissolved in DMSO and further diluted with DMSO to prepare a solution having a concentration 100 times the evaluation concentration. The solution was further diluted 25 times with an assay buffer (20 mmol/L HEPES, 0.01% Triton (registered trademark) X-100, 1 mmol/L DTT, pH 7.5) to obtain a test compound solution.
The human ROCK2 kinase was expressed by fusing the catalytic domain (1 to 553 amino acids of Accession No. NP_004841.2) with GST at the N-terminus using the baculovirus expression system. GST-ROCK2 was purified by glutathione sepharose chromatography.
A 4-fold concentration substrate (LIMKtide, 1000 nmol/L) /ATP (5 µmol/L)/metal solution (Mg, 5 mmol/L) was prepared with kit buffer (20 mmol/L HEPES, 0.01% Triton (registered trademark) X-100, 5 mmol/L DTT, pH 7.5). A 2-fold concentration kinase solution was prepared with assay buffer. 5 µL of a 4-fold concentration test compound solution, 5 µL of a 4-fold concentration substrate/ATP/metal solution, and 10 µL of a 2-fold concentration kinase solution were mixed in a well of a polypropylene 384 well plate, and the mixture was reacted at room temperature for 1 hour. 70 µL of termination buffer (127 mmol/L HEPES, 0.01% Triton (registered trademark) X-100, 26.7 mmol/L EDTA-2Na, 1% DMSO, pH 7.5) was added to stop the reaction. The substrate peptide and the phosphorylated peptide in the reaction solution were separated and quantified using a LabChip (trademark) system (Perkin Elmer).
The kinase reaction was evaluated by the product ratio (P/(P + S)) calculated from the substrate peptide peak height (S) and the phosphorylated peptide peak height (P).
The average signal of the control well including all the reaction components was set to 0% suppression, the average signal of the background well (no enzyme added) was set to 100% suppression, and the inhibition rate was calculated from the average signal of the test compound test well.
The ROCK2 inhibition rate and the evaluation concentration of the test compound are shown in Table 4-1, and the IC50 value of the inhibitory activity is shown in Table 4-2. […]
Target sequence in this assay (O75116 1-553): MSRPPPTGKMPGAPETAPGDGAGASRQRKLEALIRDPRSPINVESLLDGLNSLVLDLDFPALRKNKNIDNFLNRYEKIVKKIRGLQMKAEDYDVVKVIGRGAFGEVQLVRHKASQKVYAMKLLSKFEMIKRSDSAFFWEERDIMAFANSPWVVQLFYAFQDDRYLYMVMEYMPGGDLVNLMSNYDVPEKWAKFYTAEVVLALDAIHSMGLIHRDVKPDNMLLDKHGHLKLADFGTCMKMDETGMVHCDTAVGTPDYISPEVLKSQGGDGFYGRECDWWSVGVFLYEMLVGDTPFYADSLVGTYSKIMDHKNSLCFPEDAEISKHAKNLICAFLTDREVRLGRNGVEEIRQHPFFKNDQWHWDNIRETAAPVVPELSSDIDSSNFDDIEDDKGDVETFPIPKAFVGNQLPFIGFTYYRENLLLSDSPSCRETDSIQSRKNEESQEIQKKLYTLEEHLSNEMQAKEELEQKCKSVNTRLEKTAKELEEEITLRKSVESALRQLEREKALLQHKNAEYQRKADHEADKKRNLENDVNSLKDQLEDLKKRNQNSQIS

[3] = target: T1, ROCK2 protein; experiment: Degradation inducing activity of ROCK2 protein in HUVEC cells, Western blotting (Simple Western JESS); type: cell-based; set-up: endogenous in cells; host or cells: HUVEC (ATCC CRL-1730); settings: HUVEC, 24 h; for inhibition at 1 µM: degradation rate at 1 µM; for inhibition at 10 µM: degradation rate at 10 µM
Outline: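 HUVEC cells treated 24 h with compound at 10 µM or 1 µM, then lysed; ROCK2 quantified by capillary Western (Simple Western JESS) using rabbit mAb D1B1, normalized to total loaded protein. Degradation rate (%) calculated relative to DMSO control set at 100%, binned A ≥75%, B 50–75%, C 25–50%, D <25%.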
Target sequence in this assay (O75116 whole entry): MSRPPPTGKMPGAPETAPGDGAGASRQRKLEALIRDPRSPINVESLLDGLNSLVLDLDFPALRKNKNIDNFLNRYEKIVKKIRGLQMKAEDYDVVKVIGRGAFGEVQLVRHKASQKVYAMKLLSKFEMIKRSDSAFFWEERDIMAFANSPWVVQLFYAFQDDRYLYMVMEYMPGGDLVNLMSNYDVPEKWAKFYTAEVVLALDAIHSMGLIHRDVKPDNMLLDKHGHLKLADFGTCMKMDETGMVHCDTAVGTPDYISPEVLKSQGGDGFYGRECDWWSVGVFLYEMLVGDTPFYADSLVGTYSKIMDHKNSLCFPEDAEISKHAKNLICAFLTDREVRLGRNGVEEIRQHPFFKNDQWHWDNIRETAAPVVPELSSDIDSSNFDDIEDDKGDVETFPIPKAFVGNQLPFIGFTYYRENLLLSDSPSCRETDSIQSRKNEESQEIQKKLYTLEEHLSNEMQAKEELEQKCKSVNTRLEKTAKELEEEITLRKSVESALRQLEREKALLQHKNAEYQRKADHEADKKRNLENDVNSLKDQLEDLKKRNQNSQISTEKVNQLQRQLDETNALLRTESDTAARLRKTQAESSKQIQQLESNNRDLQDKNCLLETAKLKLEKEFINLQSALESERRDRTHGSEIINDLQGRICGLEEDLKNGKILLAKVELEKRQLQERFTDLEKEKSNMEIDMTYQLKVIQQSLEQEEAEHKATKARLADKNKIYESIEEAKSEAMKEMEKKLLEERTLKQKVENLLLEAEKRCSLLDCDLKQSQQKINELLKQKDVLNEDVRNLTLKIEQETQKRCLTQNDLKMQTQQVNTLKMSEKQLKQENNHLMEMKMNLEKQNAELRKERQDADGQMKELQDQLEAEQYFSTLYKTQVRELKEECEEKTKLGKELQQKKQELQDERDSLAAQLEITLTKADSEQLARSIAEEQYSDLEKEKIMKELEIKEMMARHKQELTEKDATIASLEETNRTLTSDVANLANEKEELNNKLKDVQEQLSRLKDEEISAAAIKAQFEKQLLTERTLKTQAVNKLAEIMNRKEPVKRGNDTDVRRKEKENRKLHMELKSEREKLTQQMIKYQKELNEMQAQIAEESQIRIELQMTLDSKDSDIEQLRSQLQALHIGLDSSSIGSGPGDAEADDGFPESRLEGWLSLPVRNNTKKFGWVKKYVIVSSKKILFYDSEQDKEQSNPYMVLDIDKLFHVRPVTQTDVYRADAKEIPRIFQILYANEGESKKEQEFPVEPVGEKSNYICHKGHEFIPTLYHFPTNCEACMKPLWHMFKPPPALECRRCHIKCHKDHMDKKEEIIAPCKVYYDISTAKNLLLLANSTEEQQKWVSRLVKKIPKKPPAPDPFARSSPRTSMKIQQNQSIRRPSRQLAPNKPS

FAK protein, sequence (Q05397 whole entry): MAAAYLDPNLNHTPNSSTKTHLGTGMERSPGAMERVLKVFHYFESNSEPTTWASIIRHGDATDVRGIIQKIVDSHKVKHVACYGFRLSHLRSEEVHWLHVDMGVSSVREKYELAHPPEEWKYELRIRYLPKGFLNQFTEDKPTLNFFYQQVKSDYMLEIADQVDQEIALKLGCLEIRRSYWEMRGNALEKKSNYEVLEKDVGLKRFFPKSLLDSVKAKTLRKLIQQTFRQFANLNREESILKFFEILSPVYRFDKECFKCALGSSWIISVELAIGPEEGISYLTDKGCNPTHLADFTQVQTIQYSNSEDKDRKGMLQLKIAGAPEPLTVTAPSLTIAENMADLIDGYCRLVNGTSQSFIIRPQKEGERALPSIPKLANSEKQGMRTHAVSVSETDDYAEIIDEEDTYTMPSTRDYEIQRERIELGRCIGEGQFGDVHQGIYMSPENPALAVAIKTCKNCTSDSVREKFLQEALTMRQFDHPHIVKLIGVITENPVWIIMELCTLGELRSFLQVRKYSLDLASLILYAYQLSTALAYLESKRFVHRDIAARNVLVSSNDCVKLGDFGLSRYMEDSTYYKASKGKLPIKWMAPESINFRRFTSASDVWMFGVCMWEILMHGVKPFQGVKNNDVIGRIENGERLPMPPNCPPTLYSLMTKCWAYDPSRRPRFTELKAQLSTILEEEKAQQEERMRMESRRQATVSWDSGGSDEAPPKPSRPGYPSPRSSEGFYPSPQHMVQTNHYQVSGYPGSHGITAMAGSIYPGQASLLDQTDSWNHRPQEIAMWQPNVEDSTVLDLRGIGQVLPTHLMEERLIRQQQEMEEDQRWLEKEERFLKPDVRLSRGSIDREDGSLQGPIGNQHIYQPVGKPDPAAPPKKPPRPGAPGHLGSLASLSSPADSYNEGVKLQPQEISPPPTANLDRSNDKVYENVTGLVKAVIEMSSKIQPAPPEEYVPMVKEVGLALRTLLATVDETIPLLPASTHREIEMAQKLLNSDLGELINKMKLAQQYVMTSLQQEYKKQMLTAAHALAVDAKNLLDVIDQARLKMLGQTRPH

| Compound | FAK protein degradation rate [1] [%] | inhibition at 0.03 µM [2] [%] | inhibition at 1 µM [3] [%] | inhibition at 10 µM [3] [%] | inhibition at 10 µM ([2]; evaluation concentration 10 µM) [%] |
| --- | --- | --- | --- | --- | --- |
| C[C@@H]1CN(CC(=O)N2CC(C)(C)c3ncc(Cc4ccc(F)cc4)cc32)[C@@H](CN(C)CCOCCOCC(=O)Nc2ccc(Nc3ncc(C(F)(F)F)c(NCc4cccc(S(C)(=O)=O)c4)n3)cc2)CN1 [Example 110, 2-(2-(2-((((2R,5R)-1-(2-(6-(4-fluorobenzyl)-3,3-dimethyl-2,3-dihydro-1H-pyrrolo[3,2-b]pyridin-1-yl)-2-oxoethyl)-5-methylpiperazin-2-yl)methyl) (methyl)amino)ethoxy)ethoxy)-N-(4-((4-((3-(methylsulfonyl)benzyl)amino)-5-(trifluoromethyl)pyrimidin-2-yl)amino)phenyl)acetamide] | ≥ 75 | – | – | – | – |
| 2-(4-((6-(4-Fluorobenzyl)-1-(2-((2R,5R)-2-(methoxymethyl)-5-methylpiperazin-1-yl)acetyl)-3,3-dimethyl-2,3-dihydro-1H-pyrrolo[3,2-b]pyridin-5-yl)methyl)piperazin-1-yl)-N-(4-((4-((3-(methylsulfonyl)benzyl)amino)-5-(trifluoromethyl)pyrimidin-2-yl)amino)phenyl)acetamide [Example 114] | ≥ 75 | – | – | – | – |
| C[C@@H]1CN(CC(=O)N2CC(C)(C)c3ncc(Cc4ccc(F)cc4)cc32)[C@@H](CN(C)CCOCCOCCNC[C@@H](C(=O)Nc2ccc3cnccc3c2)c2ccccc2)CN1 [Example 16, (S)-1-((2R,5R)-1-(2-(6-(4-Fluorobenzyl)-3,3-dimethyl-2,3-dihydro-1H-pyrrolo[3,2-b]pyridin-1-yl)-2-oxoethyl)-5-methylpiperazin-2-yl)-N-(isoquinolin-6-yl)-2-methyl-13-phenyl-5,8-dioxa-2,11-diazatetradecan-14-amide] | – | 50 to 75 | 25 to 50 | ≥ 75 | – |
| COC[C@H]1CN[C@H](C)CN1CC(=O)N1CC(C)(C)c2nc(CN(C)CCOCCNC[C@@H](C(=O)Nc3ccc4cnccc4c3)c3ccccc3)c(Cc3ccc(F)cc3)cc21 [Example 36, (S)-3-((2-(2-(((6-(4-Fluorobenzyl)-1-(2-((2R,5R)-2-(methoxymethyl)-5-methylpiperazin-1-yl)acetyl)-3,3-dimethyl-2,3-dihydro-1H-pyrrolo[3,2-b]pyridin-5-yl)methyl)(methyl)amino)ethoxy)ethyl)amino)-N-(isoquinolin-6-yl)-2-phenylpropanamide] | – | 50 to 75 | 25 to 50 | ≥ 75 | – |
| C[C@@H]1CN(CC(=O)N2CC(C)(C)c3ncc(Cc4ccc(F)cc4)cc32)[C@@H](CN(C)CCOCCOCCOCCN[C@H](C)c2ccc(C(=O)Nc3ccncc3)cc2)CN1 [Example 3, 4-((R)-1-((2R,5R)-1-(2-(6-(4-Fluorobenzyl)-3,3-dimethyl-2,3-dihydro-1H-pyrrolo[3,2-b]pyridin-1-yl)-2-oxoethyl)-5-methylpiperazin-2-yl)-2-methyl-5,8,11-trioxa-2,14-diazahexadecan-15-yl)-N-(pyridin-4-yl)benzamide] | – | – | 50 to 75 | ≥ 75 | ≥ 75 |

More lines, now with the values ahead:

| FAK protein degradation rate [1] [%] | inhibition at 0.03 µM [2] [%] | inhibition at 1 µM [3] [%] | inhibition at 10 µM [3] [%] | inhibition at 10 µM ([2]; evaluation concentration 10 µM) [%] | Compound |
| --- | --- | --- | --- | --- | --- |
| ≥ 75 | – | – | – | – | COC[C@H]1CN[C@H](C)CN1CC(=O)N1CC(C)(C)c2ncc(Cc3cccc(OCCN4CCN(CC(=O)Nc5ccc(Nc6ncc(C(F)(F)F)c(NCc7cccc(S(C)(=O)=O)c7)n6)cc5)CC4)c3)cc21 [Example 124, 2-(4-(2-(3-((1-(2-((2R,5R)-2-(Methoxymethyl)-5-methylpiperazin-1-yl)acetyl)-3,3-dimethyl-2,3-dihydro-1H-pyrrolo[3,2-b]pyridin-6-yl)methyl)phenoxy)ethyl)piperazin-1-yl)-N-(4-((4-((3-(methylsulfonyl)benzyl)amino)-5-(trifluoromethyl)pyrimidin-2-yl)amino)phenyl)acetamide] |
| ≥ 75 | – | – | – | – | COC[C@H]1CN[C@H](C)CN1CC(=O)N1CC(C)(C)c2ncc(Cc3ccccc3OCCN3CCN(CC(=O)Nc4ccc(Nc5ncc(C(F)(F)F)c(NCc6cccc(S(C)(=O)=O)c6)n5)cc4)CC3)cc21 [Example 119, 2-(4-(2-(2-((1-(2-((2R,5R)-2-(Methoxymethyl)-5-methylpiperazin-1-yl)acetyl)-3,3-dimethyl-2,3-dihydro-1H-pyrrolo[3,2-b]pyridin-6-yl)methyl)phenoxy)ethyl)piperazin-1-yl)-N-(4-((4-((3-(methylsulfonyl)benzyl)amino)-5-(trifluoromethyl)pyrimidin-2-yl)amino)phenyl)acetamide] |
| ≥ 75 | – | – | – | – | C[C@@H]1CN(CC(=O)N2CC(C)(C)c3ncc(Cc4ccc(F)cc4)cc32)[C@@H](CN(C)CCOCCOCCOCCOCC(=O)Nc2ccc(Nc3ncc(C(F)(F)F)c(NCc4cccc(S(C)(=O)=O)c4)n3)cc2)CN1 [Example 112, 1-((2R,5R)-1-(2-(6-(4-Fluorobenzyl)-3,3-dimethyl-2,3-dihydro-1H-pyrrolo[3,2-b]pyridin-1-yl)-2-oxoethyl)-5-methylpiperazin-2-yl)-2-methyl-N-(4-((4-((3-(methylsulfonyl)benzyl)amino)-5-(trifluoromethyl)pyrimidin-2-yl)amino)phenyl)-5,8,11,14-tetraoxa-2-azahexadecan-16-amide] |
